Measurements reported in patent US6825340B2, “Methods and reagents for inactivating ribonucleases” (Ambion, Inc., priority 1998, dated 2004).

Key:
[1] = system: RNase mixture (RNase A, RNase 1, RNase T1); experiment: Non-isotopic RNase inactivation assay (mouse total RNA, agarose gel); assay type: biochemical, human, E. coli and a fungus
Excerpt: The inventors routinely perform assays on RNA designed to assess RNase activity in a sample. Two different assays are typically used for the detection of ribonuclease activity, non-isotopic and isotopic. […] In both assays, the inactivation process is typically performed on a mixture of three different ribonucleases: RNase A, RNase 1, and RNase T1. Each ribonuclease is purified from a different species: […], E. coli and a fungus, respectively. The three RNases are very different from each other in their origin, substrate specificity and protein sequence. In this way, the inactivation process can test three completely different but well characterized ribonucleases. The standard stock RNase mixture employed in the following examples is prepared by combining 1 μl RNase 1 (100 U/μl; Ambion), 1 μl RNase cocktail (RNase A, 0.5 U/μl; RNase T1, 20 U/μl, Ambion) and 98 μl water. The non-isotopic assay uses total RNA isolated from mouse as the substrate for the RNase mixture. […] A quantity of 4 μg of total RNA isolated from mouse liver or brain was dissolved in an aqueous solution, usually water or 1 mM sodium citrate (pH 6.6). The treated ribonuclease sample was added to the total RNA and then incubated at 37° C. for 1 or 16 hours, depending on the sensitivity desired for the assay. After incubation, the RNA was fractionated in a formaldehyde 1% agarose gel. The RNA was detected by staining with ethidium bromide and then illuminating the gel with ultraviolet light. The RNA fluoresces in the gel. Untreated total RNA was also fractionated as a control with the test samples for comparative purposes. […] Intact total RNA has two major bands produced by the 28S and 18S ribosomal RNA. […] The RNase cocktail was made to various concentrations in different buffers in different DTT concentrations and incubated at 37° C. or 60° C. for 20 minutes. Total mouse RNA was added to the treated RNase mixture and incubated at 37° C. for one hour, fractionated in a formaldehyde denaturing 1% agarose gel and the RNA visualized by ethidium bromide staining and UV fluorescence.

DNase I = DNase I (Bos taurus, UniProt P00639); experiment: DNase I activity after reducing/heat treatment, plasmid DNA degradation; assay type: biochemical; details: 20 mM reducing reagent in water; DNase I 0.4 units/μl; 60° C. for 20 minutes
Sequence of DNase I (P00639 23-282): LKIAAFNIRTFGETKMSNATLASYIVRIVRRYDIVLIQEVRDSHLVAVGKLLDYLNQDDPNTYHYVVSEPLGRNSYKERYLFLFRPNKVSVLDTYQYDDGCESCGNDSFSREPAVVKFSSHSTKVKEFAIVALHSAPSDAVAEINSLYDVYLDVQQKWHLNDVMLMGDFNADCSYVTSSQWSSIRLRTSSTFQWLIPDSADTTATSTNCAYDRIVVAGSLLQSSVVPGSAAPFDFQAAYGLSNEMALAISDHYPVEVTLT
Experimental: DNase I is commonly used to degrade contaminating DNA in RNA preparations. To test whether the inactivation method affected DNase I activity, DNase I (final concentration of 0.4 units/μl) was added to water containing 20 mM DTT, DTE or β-mercaptoethanol. The mixture was incubated at 60° C. for 20 minutes. After the heat treatment, the DNase I activity was tested by incubating the treated DNase I with plasmid DNA (0.2 μg/μl ) at 37° C. for one hour followed by electrophoresis in a 1% agarose gel.

T3 RNA polymerase = biological target: T1, T3 RNA polymerase (Enterobacteria phage T3, UniProt P07659); experiment: In vitro transcription reaction (MAXIscript kit), UTP[α-32P] incorporation; assay type: biochemical; details: 20 mM reducing reagent
T1 construct: purchased Ambion, Inc
T1 sequence (P07659 whole entry): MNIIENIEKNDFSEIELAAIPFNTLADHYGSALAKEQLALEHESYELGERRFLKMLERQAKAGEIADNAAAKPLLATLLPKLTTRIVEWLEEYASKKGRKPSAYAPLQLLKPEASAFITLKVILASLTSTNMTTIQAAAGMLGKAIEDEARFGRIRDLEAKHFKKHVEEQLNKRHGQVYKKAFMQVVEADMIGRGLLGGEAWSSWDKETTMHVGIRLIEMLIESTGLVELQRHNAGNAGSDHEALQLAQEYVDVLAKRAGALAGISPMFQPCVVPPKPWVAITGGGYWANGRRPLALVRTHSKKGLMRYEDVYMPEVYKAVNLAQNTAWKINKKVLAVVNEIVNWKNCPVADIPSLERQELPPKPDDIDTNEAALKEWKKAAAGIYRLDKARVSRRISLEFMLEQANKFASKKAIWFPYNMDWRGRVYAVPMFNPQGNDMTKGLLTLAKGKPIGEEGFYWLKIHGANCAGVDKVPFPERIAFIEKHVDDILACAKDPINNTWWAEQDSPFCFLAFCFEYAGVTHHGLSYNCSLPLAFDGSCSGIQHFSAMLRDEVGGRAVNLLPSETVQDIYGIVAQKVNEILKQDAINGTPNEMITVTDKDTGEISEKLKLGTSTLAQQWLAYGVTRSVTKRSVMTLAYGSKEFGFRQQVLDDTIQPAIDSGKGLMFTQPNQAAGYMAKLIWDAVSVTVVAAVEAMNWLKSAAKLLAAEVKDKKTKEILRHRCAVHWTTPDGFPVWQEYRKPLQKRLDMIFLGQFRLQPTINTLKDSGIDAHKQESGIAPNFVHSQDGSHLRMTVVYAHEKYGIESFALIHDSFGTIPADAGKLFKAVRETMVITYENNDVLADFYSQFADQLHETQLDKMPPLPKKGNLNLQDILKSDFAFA
Experimental: (§1) FIG. 3. […] Transcriptions were performed with T7, T3 and SP6 RNA polymerase in the presence and absence of 20 mM DTT. For each RNA polymerase reaction, pTRI-Xef DNA was the template and UTP[α^32P] was included to measure the efficiency of transcription. Duplicates were performed for each reaction. TCA precipitations were performed on each transcription reaction to measure the percent of the UTP[α^32P] incorporated into RNA.
(§2) The transcription reactions were based on the MAXIscript™ transcription kit (Ambion, Inc.). The following were assembled with or without 20 mM reducing reagent in a final volume of 18 μl: NTPs (0.5 mM each), 1 μg linearized DNA template, 2 μl 10 × transcription buffer, and 0.2 μl UTP [α-^32P] (800 Ci/mmol). The reaction mixtures were incubated 60° C. for 10 minutes and then 2 μl of the either SP6, T7 or T3 RNA polymerase (10 units/μl) were added to the reactions, incubated 30° C. for 60 minutes and then TCA precipitated to assess the incorporation of the radioactive label.

SP6 RNA polymerase = biological target: T2, SP6 RNA polymerase (Enterobacteria phage SP6, UniProt P06221); experiment: as above; assay type: biochemical; details: 20 mM reducing reagent
T2 construct: purchased Ambion, Inc
T2 sequence (P06221 1-874): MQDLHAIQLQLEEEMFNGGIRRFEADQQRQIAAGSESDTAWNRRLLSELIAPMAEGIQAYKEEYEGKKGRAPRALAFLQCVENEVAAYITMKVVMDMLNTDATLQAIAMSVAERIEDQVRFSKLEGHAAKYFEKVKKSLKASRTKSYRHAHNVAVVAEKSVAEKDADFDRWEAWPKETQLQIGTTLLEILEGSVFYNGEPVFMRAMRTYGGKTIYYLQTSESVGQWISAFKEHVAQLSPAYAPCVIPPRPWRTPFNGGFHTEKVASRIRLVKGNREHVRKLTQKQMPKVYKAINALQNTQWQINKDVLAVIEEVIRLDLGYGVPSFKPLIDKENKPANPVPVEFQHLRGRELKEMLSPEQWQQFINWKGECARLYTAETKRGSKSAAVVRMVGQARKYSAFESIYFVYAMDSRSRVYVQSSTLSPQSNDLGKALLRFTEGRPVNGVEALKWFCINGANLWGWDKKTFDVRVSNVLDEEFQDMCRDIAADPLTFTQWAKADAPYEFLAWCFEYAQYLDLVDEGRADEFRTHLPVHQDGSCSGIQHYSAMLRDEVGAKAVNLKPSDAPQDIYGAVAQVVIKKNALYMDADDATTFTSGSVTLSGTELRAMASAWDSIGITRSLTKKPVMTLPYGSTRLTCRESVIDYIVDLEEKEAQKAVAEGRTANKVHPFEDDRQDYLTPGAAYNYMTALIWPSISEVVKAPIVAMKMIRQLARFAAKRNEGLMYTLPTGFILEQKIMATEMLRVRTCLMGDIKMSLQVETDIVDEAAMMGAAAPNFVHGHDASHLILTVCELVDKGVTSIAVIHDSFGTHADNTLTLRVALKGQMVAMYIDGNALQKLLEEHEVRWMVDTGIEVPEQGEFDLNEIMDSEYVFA
Experimental: as §1, §2

T7 RNA polymerase = biological target: T3, T7 RNA polymerase (Escherichia phage T7, UniProt P00573); experiment: as above; assay type: biochemical; details: 20 mM reducing reagent
T3 construct: purchased Ambion, Inc
Experimental: as §1, §2

[2] = system: AMV reverse transcriptase; experiment: Reverse transcription reaction (RETROscript kit), dCTP[α-32P] incorporation; assay type: biochemical; details: 20 mM reducing reagent
Experimental: (§3) FIG. 2. […] Reverse transcriptions were performed using the RETROscript™ kit (Ambion, Inc.). Mouse total RNA in DEPC-treated water was reverse transcribed with either MMLV or AMV reverse transcriptase in the presence or absence of 20 mM DTT. dCTP[α^32P] was included in the reactions to measure the efficiency of reverse transcription. Following incubation at 42° C. for 1 h, 5 μl of each reaction was subjected to TCA precipitation to measure the amount of dCTP[α^32P] incorporated into cDNA by reverse transcription.
(§4) The reverse transcription reactions were performed using the RETROscript™ kit (Ambion, Inc.). The following were assembled with or without 20 mM of the reducing reagents in a final volume of 19 μl: dNTPs (0.5 mM each), oligo dT (5 μM), 0.4 μl dCTP[α-^32p] (3000 Ci/mmol), 10 mM Tris-HCl (pH 8.3): 50 mM KCl: 1.5 mM MgCl2, mouse brain total RNA (4 μg). The reaction mixtures were incubated at 65° C. for 10 minutes. 1 μl (100 units) of AMV or MMLV reverse transcriptase were added and then the reactions were incubated at 42° C. for 1 hour. Reverse transcription by either enzyme was not inhibited by DTT (FIG. 2) or by DTE or β-mercaptoethanol.

[3] = biological target: T4, MMLV reverse transcriptase (Moloney murine leukemia virus, UniProt P03355); experiment: as above; assay type: biochemical; details: 20 mM reducing reagent
T4 construct: purchased Ambion, Inc
Experimental: as §3, §4

[4] = reducing reagent 20 mM, RNase mixture 200 ng/ml, 60° C. for 20 minutes

SMILES | RNase mixture inactivation [1, 4] | DNase I activity after reducing/heat treatment (DNase I) | inhibition of T3 RNA polymerase transcription (T3 RNA polymerase) | inhibition of SP6 RNA polymerase transcription (SP6 RNA polymerase) | inhibition of T7 RNA polymerase transcription (T7 RNA polymerase) | inhibition of reverse transcription by AMV reverse transcriptase [2] | inhibition of reverse transcription by MMLV reverse transcriptase [3] | RNase mixture inactivation ([1]; 10 mM cysteine, RNase mixture 200 ng/ml, 1 mM sodium citrate (pH 6.4), 68° C. for 20 minutes) | RNase mixture inactivation ([1]; 20 mM cysteine, RNase mixture 200 ng/ml, 1 mM sodium citrate (pH 6.4), 68° C. for 20 minutes) | RNase mixture inactivation ([1]; 40 mM cysteine, RNase mixture 200 ng/ml, 1 mM sodium citrate (pH 6.4), 68° C. for 20 minutes) | RNase mixture inactivation ([1]; 60 mM cysteine, RNase mixture 200 ng/ml, 1 mM sodium citrate (pH 6.4), 68° C. for 20 minutes) | RNase mixture inactivation ([1]; heated DTT diluted to 20 mM, RNase mixture 200 ng/ml in water, 60° C. for 20 minutes)
O[C@H](CS)[C@@H](O)CS [DTE, dithioerythritol] | inactivate RNase activity completely | not affected | None of the three polymerases were inhibited | None of the three polymerases were inhibited | None of the three polymerases were inhibited | not inhibited | not inhibited | – | – | – | – | –
N[C@@H](CS)C(=O)O [cysteine] | – | – | – | – | – | – | – | inactivated | inactivated | inactivated | inactivated | –
OC1CSSCC1O (stereo not shown) [oxidized DTT] | – | – | – | – | – | – | – | – | – | – | – | did not inactivate
OCCS [β-mercaptoethanol] | inactivate RNase activity completely | not affected | None of the three polymerases were inhibited | None of the three polymerases were inhibited | None of the three polymerases were inhibited | not inhibited | not inhibited | – | – | – | – | –
